{"source": "patent US20150141435A1", "about": "“2-PYRIDONE ANTIMICROBIAL COMPOSITIONS” (Emergent BioSolutions, priority 2010, published 2015)", "key": {"[1]": {"test_system": "A. baumannii ATCC 19606", "assay": "MIC, CLSI broth microdilution (Table 2)", "assay_type": "cell-based", "settings": "Acinetobacter baumannii, ATCC19606; Gram negative; MHB, 37° C., 16-20 hours; read-out: MIC A. baumannii B. ATCC 19606"}, "[2]": {"test_system": "Escherichia coli (6 strains)", "assay": "MIC range, broader panel incl. clinical isolates (Table 4)", "assay_type": "cell-based"}, "[3]": {"test_system": "Acinetobacter baumannii (12 strains)", "assay": "MIC range, broader panel incl. clinical isolates (Table 4)", "assay_type": "cell-based", "settings": "Median of 12 strains"}, "[4]": {"test_system": "Enterococcus faecalis (5 strains)", "assay": "MIC range, broader panel incl. clinical isolates (Table 3)", "assay_type": "cell-based"}, "[5]": {"test_system": "Streptococcus pyogenes (4 strains)", "assay": "MIC range, broader panel incl. clinical isolates (Table 3)", "assay_type": "cell-based"}, "[6]": {"test_system": "Klebsiella pneumonia (4 strains)", "assay": "MIC range, broader panel incl. clinical isolates (Table 4)", "assay_type": "cell-based", "settings": "Klebsiella pneumoniae"}, "[7]": {"test_system": "S. aureus ATCC 43300 (MRSA, FQ-S)", "assay": "MIC, CLSI broth microdilution (Table 1)", "assay_type": "cell-based", "settings": "Staphylococcus aureus; Gram positive; MHB, 37° C., 16-20 hours; read-out: MIC S. aureus ATCC 43300 (MRSA, FQ-S)"}, "[8]": {"test_system": "Pseudomonas aeruginosa (12 strains)", "assay": "MIC range, broader panel incl. clinical isolates (Table 4)", "assay_type": "cell-based"}, "[9]": {"test_system": "Group C Streptococcus (4 strains)", "assay": "MIC range, broader panel incl. clinical isolates (Table 3)", "assay_type": "cell-based"}, "[10]": {"test_system": "K. pneumoniae ATCC 33495", "assay": "MIC, CLSI broth microdilution (Table 2)", "assay_type": "cell-based", "settings": "Klebsiella pneumoniae, ATCC33495; Gram negative; MHB, 37° C., 16-20 hours; read-out: MIC K. pneumoniae ATCC 33495"}, "[11]": {"test_system": "S. maltophilia ATCC 17677", "assay": "MIC, CLSI broth microdilution (Table 2)", "assay_type": "cell-based", "settings": "Stenotrophomonas maltophilia, ATCC17677; Gram negative; MHB, 37° C., 16-20 hours; read-out: MIC S. maltophilia ATCC 17677"}, "[12]": {"test_system": "S. aureus BAA-1720 (MRSA, FQ-R)", "assay": "MIC, CLSI broth microdilution (Table 1)", "assay_type": "cell-based", "settings": "Staphylococcus aureus; Gram positive; MHB, 37° C., 16-20 hours; read-out: MIC S. aureus BAA-1720 (MRSA, FQ-R)"}, "[13]": {"test_system": "E. faecalis ATCC 29212", "assay": "MIC, CLSI broth microdilution (Table 1)", "assay_type": "cell-based", "settings": "Enterococcus faecalis, ATCC29212; Gram positive; MHB, 37° C., 16-20 hours; read-out: MIC E. faecalis ATCC 29212"}, "[14]": {"test_system": "Staphylococcus aureus (16 strains)", "assay": "MIC range, broader panel incl. clinical isolates (Table 3)", "assay_type": "cell-based", "settings": "Staphylococcus aureus"}, "[15]": {"test_system": "Burkholderia cepacia (5 strains)", "assay": "MIC range, broader panel incl. clinical isolates (Table 4)", "assay_type": "cell-based", "settings": "Burkholderia cepacia"}, "[16]": {"test_system": "E. faecium ATCC 19434", "assay": "MIC, CLSI broth microdilution (Table 1)", "assay_type": "cell-based", "settings": "Enterococcus faecium, ATCC19434; Gram positive; MHB, 37° C., 16-20 hours; read-out: MIC E. faecium ATCC 19434"}, "[17]": {"test_system": "Streptococcus pneumonia (5 strains)", "assay": "MIC range, broader panel incl. clinical isolates (Table 3)", "assay_type": "cell-based", "settings": "Streptococcus pneumoniae"}, "[18]": {"test_system": "S. pneumonia ATCC 49619", "assay": "MIC, CLSI broth microdilution (Table 1)", "assay_type": "cell-based", "settings": "Streptococcus pneumoniae, ATCC49619; Gram positive; MHB, 37° C., 16-20 hours; read-out: MIC S. pneumonia ATCC 49619"}, "[19]": {"test_system": "Haemophilus influenza (5 strains)", "assay": "MIC range, broader panel incl. clinical isolates (Table 4)", "assay_type": "cell-based, Haemophilus influenzae"}, "[20]": {"test_system": "H. influenzae ATCC 49247", "assay": "MIC, CLSI broth microdilution (Table 2)", "assay_type": "cell-based", "settings": "Haemophilus influenzae, ATCC49247; Gram negative; MHB, 37° C., 16-20 hours; read-out: MIC H. influenzae ATCC 49247"}, "[21]": {"test_system": "S. aureus ATCC 25923", "assay": "MIC, CLSI broth microdilution (Table 1)", "assay_type": "cell-based", "settings": "Staphylococcus aureus, ATCC25923; Gram positive; MHB, 37° C., 16-20 hours; read-out: MIC S. aureus ATCC 25923"}, "[22]": {"test_system": "Enterococcus faecium (3 strains)", "assay": "MIC range, broader panel incl. clinical isolates (Table 3)", "assay_type": "cell-based"}}, "note": "Read-outs that look alike come from different tables or passages of the source.", "data": [{"molecule": "C[C@H]1COc2c(N3CCN(C)CC3)c(F)cc3c(=O)c(C(=O)O)cn1c23", "note": "[Levofloxacin]", "values": [{"measurement": "MIC", "setting": "[1]", "value": 0.25, "unit": "µg/mL"}, {"measurement": "MIC", "setting": "[2]; High of 6 strains, read-out: MIC Range High, Escherichia coli (6 strains)", "value": "≥ 16", "unit": "µg/mL"}, {"measurement": "MIC", "setting": "[2]; Low of 6 strains, read-out: MIC Range Low, Escherichia coli (6 strains)", "value": 0.015, "unit": "µg/mL"}, {"measurement": "MIC50", "setting": "[2]; Median of 6 strains", "value": "≥ 16", "unit": "µg/mL"}, {"measurement": "MIC50", "setting": "[3]", "value": "≥ 16", "unit": "µg/mL"}, {"measurement": "MIC", "setting": "[4]; High of 5 strains, read-out: MIC Range High, Enterococcus faecalis (5 strains)", "value": "≥ 16", "unit": "µg/mL"}, {"measurement": "MIC", "setting": "[4]; Low of 5 strains, read-out: MIC Range Low, Enterococcus faecalis (5 strains)", "value": 1, "unit": "µg/mL"}, {"measurement": "MIC50", "setting": "[4]; Median of 5 strains", "value": 2, "unit": "µg/mL"}, {"measurement": "MIC", "setting": "[5]; High of 4 strains, read-out: MIC Range High, Streptococcus pyogenes (4 strains)", "value": 2, "unit": "µg/mL"}, {"measurement": "MIC", "setting": "[5]; Low of 4 strains, read-out: MIC Range Low, Streptococcus pyogenes (4 strains)", "value": 0.5, "unit": "µg/mL"}, {"measurement": "MIC50", "setting": "[5]; Median of 4 strains", "value": 0.75, "unit": "µg/mL"}, {"measurement": "MIC", "setting": "[6]; High of 4 strains, read-out: MIC Range High, Klebsiella pneumonia (4 strains)", "value": 2, "unit": "µg/mL"}, {"measurement": "MIC", "setting": "[6]; Low of 4 strains, read-out: MIC Range Low, Klebsiella pneumonia (4 strains)", "value": 0.03, "unit": "µg/mL"}, {"measurement": "MIC50", "setting": "[6]; Median of 4 strains", "value": 2, "unit": "µg/mL"}, {"measurement": "MIC", "setting": "[7]", "value": 0.125, "unit": "µg/mL"}, {"measurement": "MIC", "setting": "[8]; High of 12 strains, read-out: MIC Range High, Pseudomonas aeruginosa (12 strains)", "value": "≥ 16", "unit": "µg/mL"}, {"measurement": "MIC", "setting": "[8]; Low of 12 strains, read-out: MIC Range Low, Pseudomonas aeruginosa (12 strains)", "value": 1, "unit": "µg/mL"}, {"measurement": "MIC50", "setting": "[8]; Median of 12 strains", "value": "≥ 16", "unit": "µg/mL"}, {"measurement": "MIC", "setting": "[9]; High of 4 strains, read-out: MIC Range High, Group C Streptococcus (4 strains)", "value": 1, "unit": "µg/mL"}, {"measurement": "MIC", "setting": "[9]; Low of 4 strains, read-out: MIC Range Low, Group C Streptococcus (4 strains)", "value": 0.5, "unit": "µg/mL"}, {"measurement": "MIC50", "setting": "[9]; Median of 4 strains", "value": 0.75, "unit": "µg/mL"}, {"measurement": "MIC", "setting": "[10]", "value": 0.032, "unit": "µg/mL"}, {"measurement": "MIC", "setting": "[11]", "value": 0.25, "unit": "µg/mL"}, {"measurement": "MIC", "setting": "[12]", "value": "> 8", "unit": "µg/mL"}, {"measurement": "MIC", "setting": "[13]", "value": 1, "unit": "µg/mL"}, {"measurement": "MIC", "setting": "[14]; High of 16 strains, read-out: MIC Range High, Staphylococcus aureus (16 strains)", "value": "≥ 16", "unit": "µg/mL"}, {"measurement": "MIC", "setting": "[14]; Low of 16 strains, read-out: MIC Range Low, Staphylococcus aureus (16 strains)", "value": 0.12, "unit": "µg/mL"}, {"measurement": "MIC50", "setting": "[14]; Median of 16 strains", "value": 0.25, "unit": "µg/mL"}, {"measurement": "MIC", "setting": "[15]; High of 5 strains, read-out: MIC Range High, Burkholderia cepacia (5 strains)", "value": 2, "unit": "µg/mL"}, {"measurement": "MIC", "setting": "[15]; Low of 5 strains, read-out: MIC Range Low, Burkholderia cepacia (5 strains)", "value": 1, "unit": "µg/mL"}, {"measurement": "MIC50", "setting": "[15]; Median of 5 strains", "value": 2, "unit": "µg/mL"}, {"measurement": "MIC", "setting": "[16]", "value": 8, "unit": "µg/mL"}, {"measurement": "MIC", "setting": "[17]; High of 5 strains, read-out: MIC Range High, Streptococcus pneumonia (5 strains)", "value": 2, "unit": "µg/mL"}, {"measurement": "MIC", "setting": "[17]; Low of 5 strains, read-out: MIC Range Low, Streptococcus pneumonia (5 strains)", "value": 0.5, "unit": "µg/mL"}, {"measurement": "MIC50", "setting": "[17]; Median of 5 strains", "value": 1, "unit": "µg/mL"}, {"measurement": "MIC", "setting": "[18]", "value": 0.5, "unit": "µg/mL"}, {"measurement": "MIC", "setting": "[19]; High of 5 strains, read-out: MIC Range High, Haemophilus influenza (5 strains)", "value": 0.015, "unit": "µg/mL"}, {"measurement": "MIC", "setting": "[19]; Low of 5 strains, read-out: MIC Range Low, Haemophilus influenza (5 strains)", "value": 0.008, "unit": "µg/mL"}, {"measurement": "MIC50", "setting": "[19]; Median of 5 strains", "value": 0.015, "unit": "µg/mL"}, {"measurement": "MIC", "setting": "[20]", "value": 0.016, "unit": "µg/mL"}, {"measurement": "MIC", "setting": "[21]", "value": 0.25, "unit": "µg/mL"}, {"measurement": "MIC", "setting": "[22]; High of 3 strains, read-out: MIC Range High, Enterococcus faecium (3 strains)", "value": "≥ 16", "unit": "µg/mL"}, {"measurement": "MIC", "setting": "[22]; Low of 3 strains, read-out: MIC Range Low, Enterococcus faecium (3 strains)", "value": 2, "unit": "µg/mL"}, {"measurement": "MIC50", "setting": "[22]; Median of 3 strains", "value": "≥ 16", "unit": "µg/mL"}]}]}
